Test results from paper PMC12564265, “Navigating the Deep Eutectic Solvent Landscape: Experimental and Machine Learning Solubility Explorations of Syringic, p-Coumaric, and Caffeic Acids” (International Journal of Molecular Sciences, 2025).
Where “and” joins values, the source holds several entries; their conditions need not be identical. Equal entries are not always repeated.

Assay: Shake-flask solubility with spectrophotometric measurement in aqueous DES mixtures
Assay type: physicochemical
Details: for Increase in the solubility compared to the neat DES: 25 °C
Description: In order to determine the solubility of the three studied phenolic acids in deep eutectic solvents, a very well-established shake-flask method coupled with spectrophotometric measurements was utilized. The initial procedure involved the preparation of various DESs, which was conducted by mixing their HBA and HBD counterparts in a glass vessel and heating the composition until the formation of a transparent, uniform liquid. […] For additional measurements, the DESs were mixed with water in varying proportions, creating aqueous DES systems. Saturated solutions of CAF, SYR, and COU were obtained by adding excess amounts of these compounds to test tubes containing either a neat deep eutectic solvent or its aqueous solution. Such samples were placed in the Orbital Shaker Incubator ES-20/60 from Biosan (Riga, Latvia) and heated for 24 h at 25 °C, 30 °C, 35 °C, and 40 °C (±0.1 °C) with simultaneous mixing at 60 rpm. Before measurements, the samples were filtered using a PTFE syringe filter from Qpore (Dallas, TX, USA) with a 0.22 μm pore size. In order to avoid possible precipitation of the saturated solutions at decreased temperatures, the test tubes, syringes, pipette tips, and filters were kept at a temperature identical to that of the samples. The spectrophotometric measurements required the preparation of calibration curves for the three APIs. This involved the preparation of a stock solution of each compound in methanol, which was later successfully diluted, and the obtained solutions of varying concentrations were measured using an A360 spectrophotometer from AOE Instruments (Shanghai, China). The wavelength range was set to 200-500 nm, and the resolution was 1 nm. The analytical wavelengths were determined to be 324 nm for caffeic acid, 273 nm for syringic acid, and 308 nm for p-coumaric acid. The final regression equations, obtained after averaging three distinct sets of measurements, are collected in Table 2 together with determination coefficients and limits of detection (LOD) and quantification (LOQ) for the calibration curves. The measurements of the samples were conducted with the same spectrophotometer and identical settings. Methanol was used for the dilution of the samples so that they could remain within the linearity range of the method. Complete spectra of the samples were recorded, but for the solubility determination, the absorbance values at a specific analytical wavelength were considered. These values were combined with the corresponding regression equations of the calibration curves and served for the calculation of the concentration of the three phenolic acids in the studied samples. The densities of such samples were also measured, and for this task 1 mL of each sample was weighed to a precision of 0.1 mg using an AS 110 R2.PLUS analytical balance from […] (Radom, Poland). The obtained densities enabled the calculation of mole fractions of CAF, SYR, and COU dissolved in the studied DESs. For each considered system, three distinct measurements were conducted, and the results were averaged.

## O=C(O)C=Cc1ccc(O)cc1 [p-coumaric acid, 4-hydroxycinnamic acid]
Bet – GLY 1:2 + water, x*DES 0.9, 30°C
  Mole fraction solubility: 0.1149±0.0011 mole fraction
Bet – GLY 1:2 + water, x*DES 0.9, 35°C
  Mole fraction solubility: 0.1464±0.0025 mole fraction
Bet – GLY 1:2 + water, x*DES 0.9, 40°C
  Mole fraction solubility: 0.1934±0.0021 mole fraction
Bet – GLY 1:2, x*DES 1.0 (neat DES), 25°C
  Mole fraction solubility: 0.0898±0.0003 mole fraction
Bet – GLY 1:2, x*DES 1.0 (neat DES), 30°C
  Mole fraction solubility: 0.1090±0.0010 mole fraction
Bet – GLY 1:2, x*DES 1.0 (neat DES), 35°C
  Mole fraction solubility: 0.1389±0.0009 mole fraction
Bet – GLY 1:2, x*DES 1.0 (neat DES), 40°C
  Mole fraction solubility: 0.1842±0.0017 mole fraction
Bet-GLY 1:2, x*DES = 0.9 (xwater = 0.1)
  Increase in the solubility compared to the neat DES: 3%
ChCl – TEG 1:2 + water, x*DES 0.1, 25°C
  Mole fraction solubility: 0.0131±0.0002 mole fraction
ChCl – TEG 1:2 + water, x*DES 0.1, 30°C
  Mole fraction solubility: 0.0168±0.0002 mole fraction
ChCl – TEG 1:2 + water, x*DES 0.1, 35°C
  Mole fraction solubility: 0.0216±0.0002 mole fraction
ChCl – TEG 1:2 + water, x*DES 0.1, 40°C
  Mole fraction solubility: 0.0287±0.0003 mole fraction
ChCl – TEG 1:2 + water, x*DES 0.2, 25°C
  Mole fraction solubility: 0.0283±0.0002 mole fraction
ChCl – TEG 1:2 + water, x*DES 0.2, 30°C
  Mole fraction solubility: 0.0357±0.0002 mole fraction
ChCl – TEG 1:2 + water, x*DES 0.2, 35°C
  Mole fraction solubility: 0.0459±0.0004 mole fraction
ChCl – TEG 1:2 + water, x*DES 0.2, 40°C
  Mole fraction solubility: 0.0604±0.0004 mole fraction
ChCl – TEG 1:2 + water, x*DES 0.3, 25°C
  Mole fraction solubility: 0.0412±0.0004 mole fraction
ChCl – TEG 1:2 + water, x*DES 0.3, 30°C
  Mole fraction solubility: 0.0506±0.0006 mole fraction
ChCl – TEG 1:2 + water, x*DES 0.3, 35°C
  Mole fraction solubility: 0.0649±0.0005 mole fraction
ChCl – TEG 1:2 + water, x*DES 0.3, 40°C
  Mole fraction solubility: 0.0862±0.0009 mole fraction
ChCl – TEG 1:2 + water, x*DES 0.4, 25°C
  Mole fraction solubility: 0.0512±0.0003 mole fraction
ChCl – TEG 1:2 + water, x*DES 0.4, 30°C
  Mole fraction solubility: 0.0664±0.0007 mole fraction
ChCl – TEG 1:2 + water, x*DES 0.4, 35°C
  Mole fraction solubility: 0.0861±0.0005 mole fraction
ChCl – TEG 1:2 + water, x*DES 0.4, 40°C
  Mole fraction solubility: 0.1133±0.0008 mole fraction
ChCl – TEG 1:2 + water, x*DES 0.5, 25°C
  Mole fraction solubility: 0.0632±0.0004 mole fraction
ChCl – TEG 1:2 + water, x*DES 0.5, 30°C
  Mole fraction solubility: 0.0790±0.0006 mole fraction
ChCl – TEG 1:2 + water, x*DES 0.5, 35°C
  Mole fraction solubility: 0.1033±0.0010 mole fraction
ChCl – TEG 1:2 + water, x*DES 0.5, 40°C
  Mole fraction solubility: 0.1413±0.0012 mole fraction
ChCl – TEG 1:2 + water, x*DES 0.6, 25°C
  Mole fraction solubility: 0.0774±0.0005 mole fraction
ChCl – TEG 1:2 + water, x*DES 0.6, 30°C
  Mole fraction solubility: 0.0946±0.0004 mole fraction
ChCl – TEG 1:2 + water, x*DES 0.6, 35°C
  Mole fraction solubility: 0.1258±0.0012 mole fraction
ChCl – TEG 1:2 + water, x*DES 0.6, 40°C
  Mole fraction solubility: 0.1692±0.0013 mole fraction
ChCl – TEG 1:2 + water, x*DES 0.7, 25°C
  Mole fraction solubility: 0.0885±0.0008 mole fraction
ChCl – TEG 1:2 + water, x*DES 0.7, 30°C
  Mole fraction solubility: 0.1119±0.0007 mole fraction
ChCl – TEG 1:2 + water, x*DES 0.7, 35°C
  Mole fraction solubility: 0.1523±0.0007 mole fraction
ChCl – TEG 1:2 + water, x*DES 0.7, 40°C
  Mole fraction solubility: 0.2060±0.0014 mole fraction
ChCl – TEG 1:2 + water, x*DES 0.8, 25°C
  Mole fraction solubility: 0.1016±0.0009 mole fraction
ChCl – TEG 1:2 + water, x*DES 0.8, 30°C
  Mole fraction solubility: 0.1348±0.0012 mole fraction
ChCl – TEG 1:2 + water, x*DES 0.8, 35°C
  Mole fraction solubility: 0.1803±0.0006 mole fraction
ChCl – TEG 1:2 + water, x*DES 0.8, 40°C
  Mole fraction solubility: 0.2401±0.0023 mole fraction
ChCl – TEG 1:2 + water, x*DES 0.9, 25°C
  Mole fraction solubility: 0.1054 mole fraction and 0.1054±0.0008 mole fraction
ChCl – TEG 1:2 + water, x*DES 0.9, 30°C
  Mole fraction solubility: 0.1368±0.0008 mole fraction
ChCl – TEG 1:2 + water, x*DES 0.9, 35°C
  Mole fraction solubility: 0.1857±0.0007 mole fraction
ChCl – TEG 1:2 + water, x*DES 0.9, 40°C
  Mole fraction solubility: 0.2507±0.0018 mole fraction
ChCl – TEG 1:2, x*DES 1.0 (neat DES), 25°C
  Mole fraction solubility: 0.0997±0.0009 mole fraction
ChCl – TEG 1:2, x*DES 1.0 (neat DES), 30°C
  Mole fraction solubility: 0.1304±0.0012 mole fraction
ChCl – TEG 1:2, x*DES 1.0 (neat DES), 35°C
  Mole fraction solubility: 0.1773±0.0014 mole fraction
ChCl – TEG 1:2, x*DES 1.0 (neat DES), 40°C
  Mole fraction solubility: 0.2433±0.0022 mole fraction
ChCl-TEG 1:2, x*DES = 0.9 (xwater = 0.1)
  Increase in the solubility compared to the neat DES: 6%
Neat DES (x*DES = 1.0) involving betaine (Bet-GLY 1:2)
  Solubility increase between 25 °C and 40 °C: 205%
Neat DES (x*DES = 1.0) with choline chloride (ChCl-TEG 1:2)
  Solubility increase between 25 °C and 40 °C: 244%
